# Test results: ChEMBL document CHEMBL3272091, “Ergot alkaloids. Synthesis of 6-alkyl-8-ergolenes and 6-methyl-8-aminoergolines as potential prolactin inhibitors” (1977)
# The source made the active and inactive calls. The calls are words filed in the database; no cut-off is given here.
# How the values were obtained:
# Rattus norvegicus [1] = experiment: Prolactin inhibition ability in Sprague-Dawley rat at 10 ug/ml, ip administered 18 hrs post reserpine treatment measured after 1 hr by RIA relative to ergoconine; type: functional
# Rattus norvegicus [2] = experiment: Prolactin inhibition ability in Sprague-Dawley rat at 10 ug/ml, ip administered 18 hrs post reserpine treatment measured after 1 hr by RIA; type: functional
# Rattus norvegicus [3] = experiment: Prolactin inhibition ability in Sprague-Dawley rat at 10 ug/ml, ip administered 18 hrs post reserpine treatment measured after 1 hr by RIA relative to lergotrile; type: functional
# Rattus norvegicus [4] = experiment: Prolactin stimulation ability in Sprague-Dawley rat at 10 ug/ml, ip administered 18 hrs post reserpine treatment measured after 1 hr by RIA; type: functional, organism-based
Compound,inhibition (INH) (Rattus norvegicus [1]) [%],inhibition (INH) (Rattus norvegicus [2]) [%],inhibition (INH) (Rattus norvegicus [3]) [%],inhibition (Rattus norvegicus [4])
OCC1=C[C@@H]2c3cccc4[nH]cc(c34)C[C@H]2NC1,67,58,,
CN1CC(CO)=C[C@@H]2c3cccc4[nH]cc(c34)C[C@H]21,75,71,,
OCC1=C[C@@H]2c3cccc4[nH]cc(c34)C[C@H]2N(Cc2ccccc2)C1,,,60,
N#CN1CC(CO)=C[C@@H]2c3cccc4[nH]cc(c34)C[C@H]21,67,25,,
CCCN1CC(CO)=C[C@@H]2c3cccc4[nH]cc(c34)C[C@H]21,,72,77,
CCC(=O)N1CC(CO)=C[C@@H]2c3cccc4[nH]cc(c34)C[C@H]21,,,77,
CN1C[C@H](N)C[C@@H]2c3cccc4[nH]cc(c34)C[C@H]21,,57,,
CC(=O)N1CC(CO)=C[C@@H]2c3cccc4[nH]cc(c34)C[C@H]21,,,,Active
CCOC(=O)CN1CC(CO)=C[C@@H]2c3cccc4[nH]cc(c34)C[C@H]21,,14,77,
CCN1CC(CO)=C[C@@H]2c3cccc4[nH]cc(c34)C[C@H]21,,63,77,
CN1C[C@H](NC(=O)CBr)C[C@@H]2c3cccc4[nH]cc(c34)C[C@H]21,,,,Active
CN1C[C@H](NC(=O)CCl)C[C@@H]2c3cccc4[nH]cc(c34)C[C@H]21,,,,Active
